ChEMBL document CHEMBL3593229, “Identification of a potent 5-phenyl-thiazol-2-ylamine-based inhibitor of FLT3 with activity against drug resistance-conferring point mutations” (Eur J Med Chem, 2015)

Experiments:
[1] = tested on: Receptor-type tyrosine-protein kinase FLT3 (Homo sapiens), P36888 [UNDEFINED MUTATION]; conditions: MOLM-13
Description: Inhibition of FLT3 ITD heterozygous mutant in human MOLM-13 cells assessed as cell growth inhibition after 72 hrs by MTS assay

[2] = biological target: T1, Receptor-type tyrosine-protein kinase FLT3 (Homo sapiens, UniProt P36888); test: biochemical; format: cell-based, Sf9
T1 sequence (P36888 whole entry): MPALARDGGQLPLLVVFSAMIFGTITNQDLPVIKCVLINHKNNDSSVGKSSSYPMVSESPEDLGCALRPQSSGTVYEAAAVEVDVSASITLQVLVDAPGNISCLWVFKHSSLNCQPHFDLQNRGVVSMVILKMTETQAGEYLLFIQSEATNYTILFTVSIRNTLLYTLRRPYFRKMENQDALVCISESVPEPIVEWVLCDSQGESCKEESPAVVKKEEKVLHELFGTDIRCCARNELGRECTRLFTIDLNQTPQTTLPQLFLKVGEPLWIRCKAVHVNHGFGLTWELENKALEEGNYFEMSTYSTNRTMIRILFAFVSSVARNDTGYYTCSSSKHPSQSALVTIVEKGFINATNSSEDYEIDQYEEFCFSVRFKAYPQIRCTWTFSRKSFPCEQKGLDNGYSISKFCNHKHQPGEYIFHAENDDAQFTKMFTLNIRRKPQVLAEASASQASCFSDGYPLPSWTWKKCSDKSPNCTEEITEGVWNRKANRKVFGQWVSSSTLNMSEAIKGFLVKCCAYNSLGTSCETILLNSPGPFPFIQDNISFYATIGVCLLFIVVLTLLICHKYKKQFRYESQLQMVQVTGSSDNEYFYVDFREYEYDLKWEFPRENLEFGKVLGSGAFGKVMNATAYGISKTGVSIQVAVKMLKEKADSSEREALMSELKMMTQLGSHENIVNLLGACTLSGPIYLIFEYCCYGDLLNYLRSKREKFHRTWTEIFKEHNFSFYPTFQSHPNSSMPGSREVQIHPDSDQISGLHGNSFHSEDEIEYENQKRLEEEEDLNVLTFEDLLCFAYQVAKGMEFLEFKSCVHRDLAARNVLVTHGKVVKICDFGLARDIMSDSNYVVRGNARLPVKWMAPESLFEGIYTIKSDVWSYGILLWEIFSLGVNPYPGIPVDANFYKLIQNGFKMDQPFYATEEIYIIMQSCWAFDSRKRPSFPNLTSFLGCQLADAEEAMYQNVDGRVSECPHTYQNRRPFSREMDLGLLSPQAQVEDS
Description: Inhibition of wild type GST-tagged FLT3 kinase domain (Y567 to S993) (unknown origin) expressed in baculovirus infected insect Sf9 cells using Her2 peptide as substrate after 4 hrs by Kinase-Glo assay

Aurora kinase A = biological target: T2, Aurora kinase A (Homo sapiens, UniProt O14965); test: biochemical
T2 sequence (O14965 whole entry): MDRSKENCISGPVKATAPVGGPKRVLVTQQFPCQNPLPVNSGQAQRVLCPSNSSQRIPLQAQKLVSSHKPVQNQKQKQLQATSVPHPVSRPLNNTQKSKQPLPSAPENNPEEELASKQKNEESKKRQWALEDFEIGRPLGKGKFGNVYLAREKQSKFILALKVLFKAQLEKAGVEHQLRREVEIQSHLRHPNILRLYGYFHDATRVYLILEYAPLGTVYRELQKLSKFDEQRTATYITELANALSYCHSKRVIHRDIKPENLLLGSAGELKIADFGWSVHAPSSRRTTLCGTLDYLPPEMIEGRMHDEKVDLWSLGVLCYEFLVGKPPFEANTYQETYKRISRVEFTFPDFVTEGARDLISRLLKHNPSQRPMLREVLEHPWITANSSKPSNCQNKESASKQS
Description: Inhibition of recombinant GST-tagged Aurora-A kinase domain (S123 to S401) (unknown origin) expressed in insect Sf9 cells using tetra(LRRASLG) peptide as substrate after 90 mins by Kinase-Glo assay

[3] = biological target: Vascular endothelial growth factor receptor 2 (Homo sapiens, UniProt P35968); test: biochemical; format: cell-based, Sf9
Sequence of Vascular endothelial growth factor receptor 2 (P35968 whole entry): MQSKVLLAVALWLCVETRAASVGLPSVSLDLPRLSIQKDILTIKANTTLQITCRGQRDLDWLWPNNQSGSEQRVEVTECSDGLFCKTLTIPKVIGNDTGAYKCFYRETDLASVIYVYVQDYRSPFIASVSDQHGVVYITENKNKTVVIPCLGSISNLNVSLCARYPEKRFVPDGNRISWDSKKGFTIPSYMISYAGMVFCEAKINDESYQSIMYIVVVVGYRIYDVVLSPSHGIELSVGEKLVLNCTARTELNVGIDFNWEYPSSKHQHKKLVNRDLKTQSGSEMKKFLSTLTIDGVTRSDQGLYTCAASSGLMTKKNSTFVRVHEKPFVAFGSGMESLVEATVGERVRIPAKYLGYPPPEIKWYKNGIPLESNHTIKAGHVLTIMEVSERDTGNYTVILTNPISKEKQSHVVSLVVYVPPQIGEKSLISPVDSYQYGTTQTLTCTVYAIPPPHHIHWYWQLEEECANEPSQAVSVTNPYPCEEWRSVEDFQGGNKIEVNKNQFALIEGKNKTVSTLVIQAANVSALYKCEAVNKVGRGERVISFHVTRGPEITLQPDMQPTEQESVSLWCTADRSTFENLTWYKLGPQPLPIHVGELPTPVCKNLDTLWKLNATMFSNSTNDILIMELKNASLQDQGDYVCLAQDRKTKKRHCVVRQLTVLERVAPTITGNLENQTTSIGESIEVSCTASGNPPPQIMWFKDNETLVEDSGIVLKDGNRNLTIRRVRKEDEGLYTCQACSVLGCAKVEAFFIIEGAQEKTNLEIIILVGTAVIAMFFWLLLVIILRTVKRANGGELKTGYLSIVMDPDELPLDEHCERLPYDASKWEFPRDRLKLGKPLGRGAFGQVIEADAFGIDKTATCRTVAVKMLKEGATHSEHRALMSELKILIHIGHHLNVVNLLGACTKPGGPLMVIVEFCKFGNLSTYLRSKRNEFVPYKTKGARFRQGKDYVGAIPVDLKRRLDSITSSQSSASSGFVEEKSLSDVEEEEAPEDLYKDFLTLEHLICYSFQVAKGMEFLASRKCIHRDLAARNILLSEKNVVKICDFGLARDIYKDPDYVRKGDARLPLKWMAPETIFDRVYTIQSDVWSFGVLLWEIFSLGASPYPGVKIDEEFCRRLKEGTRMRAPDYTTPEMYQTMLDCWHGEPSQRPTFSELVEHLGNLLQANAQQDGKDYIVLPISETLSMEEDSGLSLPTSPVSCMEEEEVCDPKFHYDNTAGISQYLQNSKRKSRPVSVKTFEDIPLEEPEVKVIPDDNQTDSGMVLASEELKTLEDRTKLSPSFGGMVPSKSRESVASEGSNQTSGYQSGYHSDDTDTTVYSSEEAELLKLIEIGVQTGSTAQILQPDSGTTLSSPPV
Description: Inhibition of recombinant GST-tagged VEGFR2 kinase domain (V789 to V1356) (unknown origin) expressed in insect Sf9 cells using polyGlu4:Tyr peptide as substrate after 120 mins by Kinase-Glo assay

[4] = AUC (0 to infinity) in Sprague-Dawley rat at 10 mg/kg, po; format: ADME, organism-based; set-up: dose 10 mg/kg, time infinity, route oral; conditions: in vivo
[5] = Oral bioavailability in Sprague-Dawley rat at 10 mg/kg; format: ADME, organism-based; conditions: in vivo

Structure (SMILES) | GI50 [1] [nM] | IC50 [2] [nM] | IC50 (Aurora kinase A) [nM] | IC50 [3] [nM] | AUC(0-inf) [4] [ng·h/mL] | bioavailability [5] [%]
Cc1nc(Nc2ncc(-c3ccc(NC(=O)Nc4ccccc4)cc3)s2)cc(N2CCN(C)CC2)n1 | 24 | 79 | > 10000 | 160 | – | –
CCN1CCN(c2cc(Nc3ncc(-c4ccc(NS(=O)(=O)c5ccccc5)cc4)s3)nc(C)n2)CC1 | 140 | 520 | 43 | 170 | – | –
Cc1nc(Nc2ncc(-c3ccc(NC(=O)Nc4ccccc4)cc3)s2)cc(N2CCC(N)CC2)n1 | 16 | 73 | 150 | 53 | – | –
Cc1nc(Nc2ncc(-c3ccc(NC(=O)Nc4cccc(Cl)c4)cc3)s2)cc(N2CCNCC2)n1 | 24 | 20 | 270 | 31 | – | –
CCCCc1cc(NC(=O)Nc2ccc(-c3cnc(Nc4cc(N5CCN(C)CC5)nc(C)n4)s3)cc2)no1 | 14 | 22 | 38 | 55 | – | –
CCN1CCN(c2cc(Nc3ncc(-c4ccc(NC(=O)c5ccccc5)cc4)s3)nc(C)n2)CC1 | 19 | 850 | 140 | > 1000 | – | –
CCN1CCN(c2cc(Nc3ncc(-c4ccc(NC(=O)Nc5ccc(Cl)cc5)cc4)s3)nc(C)n2)CC1 | 9 | 320 | 95 | 43 | – | –
Cc1cc(NC(=O)Nc2ccc(-c3cnc(NC(=O)c4ccc(OCCN5CCOCC5)cc4)s3)cc2)no1 | 210 | 580 | 25 | 370 | – | –

The next compounds have a lower GI50 [1] than those just listed; values first:

GI50 [1] [nM] | IC50 [2] [nM] | IC50 (Aurora kinase A) [nM] | IC50 [3] [nM] | AUC(0-inf) [4] [ng·h/mL] | bioavailability [5] [%] | Structure (SMILES)
3 | – | – | – | – | – | CCc1cc(NC(=O)Nc2ccc(-c3cnc(Nc4cc(N5CCC(N)C5)nc(C)n4)s3)cc2)no1 (centres undefined)
3 | 83 | 320 | 120 | 66 | – | CCN1CCN(c2cc(Nc3ncc(-c4ccc(NC(=O)OCc5ccccc5)cc4)s3)nc(C)n2)CC1
1 | 10 | 56 | 15 | 313 | 10 | Cc1nc(Nc2ncc(-c3ccc(NC(=O)Nc4cc(C)on4)cc3)s2)cc(N2CCN(C)CC2)n1
2 | 33 | 36 | 15 | – | – | CCN1CCN(c2cc(Nc3ncc(-c4ccc(NC(=O)Nc5cc(C6CC6)on5)cc4)s3)nc(C)n2)CC1
3 | 49 | 41 | 10 | 632 | 18 | CCc1cc(NC(=O)Nc2ccc(-c3cnc(Nc4cc(N5CCN(C)CC5)nc(C)n4)s3)cc2)no1
